ChEMBL document CHEMBL4052737, “3-Oxo-γ-costic acid fungal-transformation generates eudesmane sesquiterpenes with in vitro tumor-inhibitory activity” (Bioorg Med Chem Lett, 2017)
Calls of active or inactive are those of the source. The calls are words filed in the database; no cut-off is given here.

Experiments:
Assay type in all cases: functional, cell-based
Caco-2 [1] = assay: Antiproliferative activity against human Caco2 cells after 48 hrs by MTT assay; details: for IC50: Caco-2, 48 h
A549 = assay: Antiproliferative activity against human A549 cells after 48 hrs by MTT assay; details: for IC50: A549, 48 h
Caco-2 [2] = assay: Induction of morphological changes in human Caco2 cells assessed as monolayer disruption at 50 uM by bright field phase contrast microscopy
Caco-2 [3] = assay: Induction of morphological changes in human Caco2 cells assessed as cell shrinkage at 50 uM by bright field phase contrast microscopy

SMILES	IC50 (Caco-2 [1])	IC50 (A549)	Activity (Caco-2 [1])	Activity (A549)	Activity (Caco-2 [2])	Activity (Caco-2 [3])
C=C(C(=O)O)[C@@H]1CC[C@@]2(C)C[C@H](O)C(=O)C(C)=C2C1	60 µM	> 100 µM	Dose-dependent effect	Dose-dependent effect		
C=C(C(=O)O)[C@@H]1CC[C@]2(C)C(=C(C)C(=O)[C@@H](O)[C@H]2O)C1	66 µM	74 µM	Dose-dependent effect	Dose-dependent effect		
C=C(C(=O)O)[C@@H]1CC[C@@]2(C)C=CC(=O)C(C)=C2C1	66 µM	> 100 µM	Dose-dependent effect	Dose-dependent effect		

Now from value to compound, other results behind:

IC50 (Caco-2 [1])	IC50 (A549)	SMILES	Activity (Caco-2 [1])	Activity (A549)	Activity (Caco-2 [2])	Activity (Caco-2 [3])
75 µM	> 100 µM	C=C(C(=O)O)[C@@H]1CC[C@]2(C)C(=C(C)C(=O)C[C@H]2O)C1	Dose-dependent effect	Dose-dependent effect		
46 µM	> 100 µM	C=C(C(=O)O)[C@@H]1CC[C@@]2(C)C=C(O)C(=O)C(C)=C2C1	Dose-dependent effect	Dose-dependent effect		
39 µM	> 100 µM	C=C(C(=O)O)[C@@H]1CC[C@@]2(C)CCC(=O)C(C)=C2C1	Dose-dependent effect	Dose-dependent effect	Active	Active
